Kd data for nine molecules are collected here from ChEMBL document CHEMBL3991601, “The target landscape of clinical kinase drugs” (Science, 2017).

Assay [1] addresses Serine/threonine-protein kinase N1 (Homo sapiens, UniProt Q16512).
Assay [2] concerns the target AP2-associated protein kinase 1 (Homo sapiens, UniProt Q2M2I8).
For assay [3], the target named is Calcium/calmodulin-dependent protein kinase type II subunit gamma (Homo sapiens, UniProt Q13555).
Assay [4] deals with Serine/threonine-protein kinase N2 (Homo sapiens, UniProt Q16513).
Sequence of Serine/threonine-protein kinase N2 (Q16513 whole entry): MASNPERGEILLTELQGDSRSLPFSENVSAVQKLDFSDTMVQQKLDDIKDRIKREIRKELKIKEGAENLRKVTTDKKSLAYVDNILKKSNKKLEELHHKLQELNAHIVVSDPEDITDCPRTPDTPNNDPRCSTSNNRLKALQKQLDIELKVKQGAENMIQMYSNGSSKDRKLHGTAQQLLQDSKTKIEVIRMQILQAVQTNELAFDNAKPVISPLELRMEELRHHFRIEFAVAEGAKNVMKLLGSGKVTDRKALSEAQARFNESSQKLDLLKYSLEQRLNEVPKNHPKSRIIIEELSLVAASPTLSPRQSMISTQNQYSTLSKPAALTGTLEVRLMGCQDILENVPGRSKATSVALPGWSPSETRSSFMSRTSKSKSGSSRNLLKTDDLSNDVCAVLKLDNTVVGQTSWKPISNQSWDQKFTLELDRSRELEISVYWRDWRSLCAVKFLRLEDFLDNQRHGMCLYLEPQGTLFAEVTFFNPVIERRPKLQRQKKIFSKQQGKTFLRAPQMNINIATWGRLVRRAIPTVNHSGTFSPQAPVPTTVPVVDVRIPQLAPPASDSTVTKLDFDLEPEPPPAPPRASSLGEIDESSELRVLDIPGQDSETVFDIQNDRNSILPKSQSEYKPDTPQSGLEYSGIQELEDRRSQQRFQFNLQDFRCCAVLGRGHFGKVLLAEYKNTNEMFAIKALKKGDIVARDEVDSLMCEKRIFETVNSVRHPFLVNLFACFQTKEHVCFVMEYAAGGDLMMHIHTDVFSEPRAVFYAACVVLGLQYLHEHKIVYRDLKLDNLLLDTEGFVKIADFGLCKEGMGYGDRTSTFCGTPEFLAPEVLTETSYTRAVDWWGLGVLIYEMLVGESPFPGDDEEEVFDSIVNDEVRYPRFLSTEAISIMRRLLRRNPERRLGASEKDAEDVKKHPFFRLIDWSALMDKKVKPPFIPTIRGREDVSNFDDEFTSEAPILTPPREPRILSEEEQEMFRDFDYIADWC
For assay [5], the target named is Tyrosine-protein kinase Fer (Homo sapiens, UniProt P16591).
Sequence of Tyrosine-protein kinase Fer (P16591 whole entry): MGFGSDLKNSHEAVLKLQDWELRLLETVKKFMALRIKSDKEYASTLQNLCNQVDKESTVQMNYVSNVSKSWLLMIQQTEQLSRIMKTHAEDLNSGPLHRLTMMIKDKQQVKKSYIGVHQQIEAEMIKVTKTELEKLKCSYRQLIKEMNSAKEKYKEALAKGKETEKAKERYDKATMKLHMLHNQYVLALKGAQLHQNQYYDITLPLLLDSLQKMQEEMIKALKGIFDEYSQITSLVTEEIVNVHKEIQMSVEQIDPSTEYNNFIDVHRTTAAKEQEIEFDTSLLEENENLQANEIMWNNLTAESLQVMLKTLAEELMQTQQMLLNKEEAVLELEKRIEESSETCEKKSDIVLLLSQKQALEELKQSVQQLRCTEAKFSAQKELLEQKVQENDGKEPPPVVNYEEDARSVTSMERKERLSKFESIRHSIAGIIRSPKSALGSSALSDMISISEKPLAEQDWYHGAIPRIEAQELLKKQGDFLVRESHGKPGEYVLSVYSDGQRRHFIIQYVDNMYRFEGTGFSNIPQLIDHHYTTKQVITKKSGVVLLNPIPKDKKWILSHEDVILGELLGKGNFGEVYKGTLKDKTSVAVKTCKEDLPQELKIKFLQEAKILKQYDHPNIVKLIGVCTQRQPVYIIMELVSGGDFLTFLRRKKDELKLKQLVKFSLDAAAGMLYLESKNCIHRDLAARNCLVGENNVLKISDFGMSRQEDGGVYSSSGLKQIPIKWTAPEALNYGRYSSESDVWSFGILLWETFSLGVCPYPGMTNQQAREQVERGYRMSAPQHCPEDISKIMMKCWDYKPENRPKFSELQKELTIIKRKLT
The target in assay [6] is T1, Ephrin type-B receptor 6 (Homo sapiens, UniProt O15197).
T1 sequence (O15197 whole entry): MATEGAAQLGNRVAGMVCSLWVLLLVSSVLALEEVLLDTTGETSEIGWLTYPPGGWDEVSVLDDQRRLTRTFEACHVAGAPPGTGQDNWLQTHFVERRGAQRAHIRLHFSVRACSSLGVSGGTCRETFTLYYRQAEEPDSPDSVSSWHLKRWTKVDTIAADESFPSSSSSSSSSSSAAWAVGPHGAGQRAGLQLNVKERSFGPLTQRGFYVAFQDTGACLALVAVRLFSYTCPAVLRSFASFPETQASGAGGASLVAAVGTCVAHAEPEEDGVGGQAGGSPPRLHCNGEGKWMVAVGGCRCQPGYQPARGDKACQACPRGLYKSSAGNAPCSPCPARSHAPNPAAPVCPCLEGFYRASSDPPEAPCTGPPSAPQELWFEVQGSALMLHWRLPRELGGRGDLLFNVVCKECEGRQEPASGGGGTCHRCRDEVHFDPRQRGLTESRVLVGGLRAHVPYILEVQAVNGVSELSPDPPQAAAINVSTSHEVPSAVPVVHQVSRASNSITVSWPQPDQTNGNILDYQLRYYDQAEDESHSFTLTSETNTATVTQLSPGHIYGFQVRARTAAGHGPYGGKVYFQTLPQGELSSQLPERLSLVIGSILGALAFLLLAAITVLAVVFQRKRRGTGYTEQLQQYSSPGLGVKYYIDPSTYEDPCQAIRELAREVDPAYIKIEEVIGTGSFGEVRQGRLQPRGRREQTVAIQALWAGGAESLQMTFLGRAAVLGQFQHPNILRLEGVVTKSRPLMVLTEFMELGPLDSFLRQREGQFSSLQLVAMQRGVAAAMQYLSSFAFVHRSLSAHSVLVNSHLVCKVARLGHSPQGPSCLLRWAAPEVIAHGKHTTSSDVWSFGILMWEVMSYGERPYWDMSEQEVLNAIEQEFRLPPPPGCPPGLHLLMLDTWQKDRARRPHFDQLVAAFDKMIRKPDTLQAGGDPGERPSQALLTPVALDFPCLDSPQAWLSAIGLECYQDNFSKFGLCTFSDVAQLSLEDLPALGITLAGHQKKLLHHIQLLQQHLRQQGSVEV

Assay [7] deals with Tyrosine-protein kinase SYK (Homo sapiens, UniProt P43405).
Assay [8] has as its target 5'-AMP-activated protein kinase catalytic subunit alpha-1 (Homo sapiens, UniProt Q13131).
In assay [9] the target is T2, Phenylalanine--tRNA ligase beta subunit (Homo sapiens, UniProt Q9NSD9).
T2 sequence (Q9NSD9 whole entry): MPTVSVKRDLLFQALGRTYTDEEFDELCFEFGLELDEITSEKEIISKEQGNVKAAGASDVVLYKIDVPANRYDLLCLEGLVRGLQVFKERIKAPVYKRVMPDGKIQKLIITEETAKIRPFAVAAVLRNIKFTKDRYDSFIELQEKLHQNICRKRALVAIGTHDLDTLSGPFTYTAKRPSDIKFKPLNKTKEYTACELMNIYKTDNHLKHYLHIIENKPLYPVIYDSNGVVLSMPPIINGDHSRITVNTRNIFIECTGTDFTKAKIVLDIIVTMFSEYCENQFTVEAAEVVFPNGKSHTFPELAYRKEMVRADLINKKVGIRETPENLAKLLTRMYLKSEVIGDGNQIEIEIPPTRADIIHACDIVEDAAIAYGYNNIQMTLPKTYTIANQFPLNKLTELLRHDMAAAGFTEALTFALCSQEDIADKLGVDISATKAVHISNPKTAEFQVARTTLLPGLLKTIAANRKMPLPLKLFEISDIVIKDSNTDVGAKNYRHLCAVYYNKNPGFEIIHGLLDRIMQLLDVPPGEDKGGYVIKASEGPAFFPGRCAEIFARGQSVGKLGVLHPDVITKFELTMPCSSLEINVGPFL

Assay [10] concerns the target T3, General transcription and DNA repair factor IIH helicase subunit XPD (Homo sapiens, UniProt P18074).
T3 sequence (P18074 whole entry): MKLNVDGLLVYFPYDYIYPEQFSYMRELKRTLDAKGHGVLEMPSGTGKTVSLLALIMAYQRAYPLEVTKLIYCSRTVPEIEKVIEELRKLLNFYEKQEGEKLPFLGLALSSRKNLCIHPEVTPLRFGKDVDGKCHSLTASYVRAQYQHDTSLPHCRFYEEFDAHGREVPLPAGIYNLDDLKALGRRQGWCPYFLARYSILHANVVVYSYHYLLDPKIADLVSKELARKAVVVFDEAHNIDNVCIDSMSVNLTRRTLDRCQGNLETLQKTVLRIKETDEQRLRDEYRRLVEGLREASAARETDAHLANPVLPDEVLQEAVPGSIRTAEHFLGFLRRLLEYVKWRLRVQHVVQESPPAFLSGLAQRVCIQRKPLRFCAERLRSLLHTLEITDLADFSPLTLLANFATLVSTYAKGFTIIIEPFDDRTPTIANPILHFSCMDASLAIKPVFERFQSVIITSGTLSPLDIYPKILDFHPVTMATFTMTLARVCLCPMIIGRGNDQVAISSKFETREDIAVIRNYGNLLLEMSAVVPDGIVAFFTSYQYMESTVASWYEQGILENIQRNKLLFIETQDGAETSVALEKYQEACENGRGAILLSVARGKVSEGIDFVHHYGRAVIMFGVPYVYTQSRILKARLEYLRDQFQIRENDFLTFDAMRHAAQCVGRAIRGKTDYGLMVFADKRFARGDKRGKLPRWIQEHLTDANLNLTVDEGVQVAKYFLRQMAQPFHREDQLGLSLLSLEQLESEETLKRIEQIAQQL
Conditions: read-out: Kd apparent; k-562, colo 205, sk-n-be(2) and mv-4-11.

For assay [11], the target named is LIM domain kinase 1 (Homo sapiens, UniProt P53667).
Sequence of LIM domain kinase 1 (P53667 whole entry, the tested form may be a part): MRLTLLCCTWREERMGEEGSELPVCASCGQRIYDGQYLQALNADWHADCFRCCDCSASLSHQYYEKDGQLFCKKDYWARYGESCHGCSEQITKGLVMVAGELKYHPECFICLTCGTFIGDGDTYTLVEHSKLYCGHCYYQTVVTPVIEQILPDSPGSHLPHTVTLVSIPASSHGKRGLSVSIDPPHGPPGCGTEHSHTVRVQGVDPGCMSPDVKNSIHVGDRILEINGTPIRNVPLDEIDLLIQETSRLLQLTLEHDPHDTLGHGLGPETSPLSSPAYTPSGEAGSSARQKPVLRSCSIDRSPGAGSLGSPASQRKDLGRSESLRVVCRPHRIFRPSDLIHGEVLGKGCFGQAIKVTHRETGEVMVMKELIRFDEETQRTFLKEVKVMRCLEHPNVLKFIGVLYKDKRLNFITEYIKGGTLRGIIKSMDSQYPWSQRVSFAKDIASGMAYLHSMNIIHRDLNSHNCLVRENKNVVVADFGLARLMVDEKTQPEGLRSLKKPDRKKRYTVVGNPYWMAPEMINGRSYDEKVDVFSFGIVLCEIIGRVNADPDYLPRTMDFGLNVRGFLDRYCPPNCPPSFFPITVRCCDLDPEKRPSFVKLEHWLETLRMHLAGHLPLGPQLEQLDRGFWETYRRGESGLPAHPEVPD

The source made the active and inactive calls. Rule as the data show it, for most assays here: actives have a measured Kd and inactives only a lower limit.
Also: in the data inactive means no Kd found up to 30 µM.

Sequence of Serine/threonine-protein kinase N1 (Q16512 whole entry): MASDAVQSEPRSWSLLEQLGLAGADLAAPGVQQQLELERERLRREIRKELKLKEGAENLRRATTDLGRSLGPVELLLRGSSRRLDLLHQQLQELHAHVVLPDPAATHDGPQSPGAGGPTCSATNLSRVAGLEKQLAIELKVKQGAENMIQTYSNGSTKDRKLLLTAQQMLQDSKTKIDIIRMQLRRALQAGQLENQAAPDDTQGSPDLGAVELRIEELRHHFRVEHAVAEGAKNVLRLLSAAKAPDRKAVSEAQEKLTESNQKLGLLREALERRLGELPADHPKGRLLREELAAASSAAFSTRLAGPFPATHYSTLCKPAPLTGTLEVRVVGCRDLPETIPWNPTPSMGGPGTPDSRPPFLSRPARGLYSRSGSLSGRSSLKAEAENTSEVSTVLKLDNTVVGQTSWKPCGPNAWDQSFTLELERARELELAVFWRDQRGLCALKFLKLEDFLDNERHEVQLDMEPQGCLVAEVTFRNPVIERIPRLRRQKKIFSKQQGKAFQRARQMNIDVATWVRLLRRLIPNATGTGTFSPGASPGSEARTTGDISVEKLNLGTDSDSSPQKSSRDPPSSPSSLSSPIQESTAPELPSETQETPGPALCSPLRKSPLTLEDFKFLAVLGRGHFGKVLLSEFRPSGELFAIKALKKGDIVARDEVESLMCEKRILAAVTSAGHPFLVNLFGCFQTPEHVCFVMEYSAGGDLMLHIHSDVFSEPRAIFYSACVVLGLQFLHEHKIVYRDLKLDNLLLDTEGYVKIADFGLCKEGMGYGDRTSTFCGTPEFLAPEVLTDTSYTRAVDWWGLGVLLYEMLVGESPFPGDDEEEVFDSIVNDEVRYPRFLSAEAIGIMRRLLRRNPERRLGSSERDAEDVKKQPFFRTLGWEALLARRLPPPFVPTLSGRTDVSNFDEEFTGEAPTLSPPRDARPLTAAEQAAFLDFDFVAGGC
Sequence of Calcium/calmodulin-dependent protein kinase type II subunit gamma (Q13555 whole entry): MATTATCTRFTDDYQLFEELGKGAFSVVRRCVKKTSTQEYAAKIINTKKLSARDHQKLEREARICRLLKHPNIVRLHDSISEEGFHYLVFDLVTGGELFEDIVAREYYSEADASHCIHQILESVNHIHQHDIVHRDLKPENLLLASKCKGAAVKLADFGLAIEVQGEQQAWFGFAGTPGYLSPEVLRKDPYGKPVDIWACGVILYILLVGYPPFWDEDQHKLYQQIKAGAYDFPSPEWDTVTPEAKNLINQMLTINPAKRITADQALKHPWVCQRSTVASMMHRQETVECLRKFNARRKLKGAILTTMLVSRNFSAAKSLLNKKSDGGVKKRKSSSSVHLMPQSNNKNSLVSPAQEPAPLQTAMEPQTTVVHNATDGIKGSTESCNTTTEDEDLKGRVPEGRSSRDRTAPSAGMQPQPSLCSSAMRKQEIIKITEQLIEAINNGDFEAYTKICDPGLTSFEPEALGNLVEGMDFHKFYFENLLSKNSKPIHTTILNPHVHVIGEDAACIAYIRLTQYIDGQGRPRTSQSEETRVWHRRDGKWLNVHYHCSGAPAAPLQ
Sequence of 5'-AMP-activated protein kinase catalytic subunit alpha-1 (Q13131 whole entry): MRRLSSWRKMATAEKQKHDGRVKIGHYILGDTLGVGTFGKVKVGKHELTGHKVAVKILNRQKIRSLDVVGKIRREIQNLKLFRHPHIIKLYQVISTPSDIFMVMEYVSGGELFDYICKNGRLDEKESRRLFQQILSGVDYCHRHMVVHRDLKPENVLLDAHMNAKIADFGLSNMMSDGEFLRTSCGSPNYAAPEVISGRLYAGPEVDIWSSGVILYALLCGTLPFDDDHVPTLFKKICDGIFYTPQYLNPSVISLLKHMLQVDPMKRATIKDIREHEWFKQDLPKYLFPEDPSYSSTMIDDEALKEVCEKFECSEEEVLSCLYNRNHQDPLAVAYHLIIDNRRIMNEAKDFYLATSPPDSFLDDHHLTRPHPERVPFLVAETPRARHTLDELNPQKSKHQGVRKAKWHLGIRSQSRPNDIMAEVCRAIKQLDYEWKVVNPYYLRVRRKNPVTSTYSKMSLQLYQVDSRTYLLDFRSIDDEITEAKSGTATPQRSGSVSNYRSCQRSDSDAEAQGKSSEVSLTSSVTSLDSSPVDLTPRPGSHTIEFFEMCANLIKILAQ

Consider `Cc1ccc(NC(=O)c2ccc(CN3CC[C@H](N(C)C)C3)c(C(F)(F)F)c2)cc1Nc1nccc(-c2cncnc2)n1` [BAFETINIB], for which the Kd in assay [1], in assay [2], in assay [3], in assay [4], in assay [5] and in assay [6] was > 30 µM (inactive) in each case. In addition, the Kd in [7], in assay [8], in [9], in assay [10] and in assay [11] was > 30 µM (inactive) in each case.

`Cc1ccc(-n2nc(C(C)(C)C)cc2NC(=O)NCc2cc(F)ccc2Oc2ccc3c(cnn3CCO)c2)cc1` [PEXMETINIB]: the Kd in assay [1], in assay [2], in assay [3], in [4], in assay [5] and in assay [6] was > 30 µM (inactive) throughout. The Kd in [7], in assay [8], in [9], in assay [10] and in assay [11] was > 30 µM (inactive) each time.

In the case of `CNS(=O)(=O)Nc1nccc(Cc2c(C)c3ccc(Oc4ncccn4)cc3oc2=O)c1F` [AVUTOMETINIB], the Kd in assay [1], in assay [2], in assay [3], in [4], in [5] and in assay [6] was > 30 µM (inactive) each time. The Kd in assay [7], in assay [8], in assay [9], in [10] and in [11] was > 30 µM (inactive) throughout.

`COc1ccc(-c2ccc3c(N4CCOC[C@@H]4C)nc(N4CCOC[C@@H]4C)nc3n2)cc1CO` [AZD-8055]: the Kd in [1], in [2], in assay [3], in assay [4], in [5] and in [6] was > 30 µM (inactive) throughout. In addition, the Kd in assay [7], in assay [8], in assay [9], in [10] and in [11] was > 30 µM (inactive) throughout.

In the case of `C1=C/COCc2cc(ccc2OCCN2CCCC2)Nc2nccc(n2)-c2cccc(c2)COC/1` [PACRITINIB], the Kd is > 30 µM (inactive) in assay [1]; 0.042 µM (active) in [2]; > 30 µM (inactive) in assay [3]; > 30 µM (inactive) in [4]; 3.66 µM (active) in [5]; > 30 µM (inactive) in [6]. The Kd in assay [7], in [8], in assay [9], in assay [10] and in assay [11] was > 30 µM (inactive) each time.

As for `O=C(O)[C@]1(Cc2cccc(Nc3nccs3)n2)CC[C@@H](Oc2cccc(Cl)c2F)CC1` [MK-5108], the Kd was > 30 µM (inactive) in assay [1]; > 30 µM (inactive) in assay [2]; > 30 µM (inactive) in assay [3]; > 30 µM (inactive) in assay [4]; 1.54 µM (active) in [5]; > 30 µM (inactive) in [6]. Further, the Kd in [7] was > 30 µM (inactive); in assay [8], > 30 µM (inactive); in [9], > 30 µM (inactive); in assay [10], > 30 µM (inactive); in assay [11], 5.09 µM (active).

As to `COc1cc2nccc(Oc3ccc(NC(=O)Nc4cc(C)on4)c(Cl)c3)c2cc1OC` [TIVOZANIB], the Kd in assay [1], in assay [2], in assay [3], in assay [4], in assay [5] and in [6] was > 30 µM (inactive) in each case. Moreover, the Kd in assay [7], in [8], in assay [9], in assay [10] and in assay [11] was > 30 µM (inactive) each time.

On to `COc1cc(N2CCC(N3CCN(C)CC3)CC2)ccc1Nc1ncnc(Nc2ccccc2S(=O)(=O)C(C)C)n1` [ASP-3026], for which the Kd in assay [1] is > 30 µM (inactive); in assay [2], 1.32 µM (active); in assay [3], 1.41 µM (active); in assay [4], > 30 µM (inactive); in assay [5], 0.363 µM (active); in assay [6], > 30 µM (inactive). The Kd in assay [7] was > 30 µM (inactive); in assay [8] it was > 30 µM (inactive); in assay [9], > 30 µM (inactive); in assay [10], > 30 µM (inactive); in assay [11], 3.98 µM (active).

Turning to `CN1CCC(CNc2ccc3ncc(-c4cccc(OC(F)(F)F)c4)n3n2)CC1` [SGI-1776], the Kd was 35.4 µM (active) in assay [1]; > 30 µM (inactive) in assay [2]; > 30 µM (inactive) in assay [3]; > 30 µM (inactive) in assay [4]; > 30 µM (inactive) in assay [5]; > 30 µM (inactive) in assay [6]. Moreover, the Kd in assay [7], in assay [8], in assay [9], in assay [10] and in [11] was > 30 µM (inactive) in each case.
